Article PMC4450297, “Screening Active Compounds from Garcinia Species Native to China Reveals Novel Compounds Targeting the STAT/JAK Signaling Pathway” (BioMed Research International, 2015)
Where two headings read alike, the source gives them in different places.

Legend:
ChaGo-K-1 = assay: Cell panel screen (CellTiter-Glo); type: cell-based, human; conditions: Homo sapiens, read-out: Percent Inhibition
Method in brief: (§1)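 72 h compound exposure at 20 μM final; ATP luminescence endpoint; % inhibition vs DMSO control.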

J82 = assay: Cell panel screen (CellTiter-Glo); type: cell-based, human; conditions: Homo sapiens, read-out: Percent Inhibition
Method in brief: as §1

MSTO-211-H = assay: Cell panel screen (CellTiter-Glo); type: cell-based, human; conditions: Homo sapiens, read-out: Percent Inhibition
Method in brief: as §1

NCI-H1623 = assay: Cell panel screen (CellTiter-Glo); type: cell-based, human; conditions: Homo sapiens, read-out: Percent Inhibition
Method in brief: as §1

ZR-75-30 = assay: Cell panel screen (CellTiter-Glo); type: cell-based, human; conditions: Homo sapiens, read-out: Percent Inhibition
Method in brief: as §1

NCI-H524 = assay: Cell panel screen (CellTiter-Glo); type: cell-based, human; conditions: Homo sapiens, read-out: Percent Inhibition
Method in brief: as §1

HT-1197 = assay: Cell panel screen (CellTiter-Glo); type: cell-based, human; conditions: Homo sapiens, read-out: Percent Inhibition
Method in brief: as §1

NCI-H1694 = assay: Cell panel screen (CellTiter-Glo); type: cell-based, human; conditions: Homo sapiens, read-out: Percent Inhibition
Method in brief: as §1

HEC-1-A = assay: Cell panel screen (CellTiter-Glo); type: cell-based, human; conditions: Homo sapiens, read-out: Percent Inhibition
Method in brief: as §1

Tyk2 = target: T1, Tyk2 (Homo sapiens, UniProt P29597); assay: Microfluidic mobility shift enzyme assay; type: biochemical
T1 construct: purchased Carna Bioscience, Inc. (Japan)
Experimental: (§2) The microfluidic mobility shift enzyme assay was performed in an on-chip incubation mode on a Caliper LabChip 2000 Drug Discovery System (Caliper Life Sciences, Hopkinton, MA). The extent of inhibition by the compounds is measured directly by quantifying the level of both unphosphorylated peptide substrate and phosphorylated product after electrophoretic separation using Caliper's LabChip assay technology. To evaluate the compounds for their target and the mechanism by which the compound affects JAK enzyme activity, the compounds were tested against JAK family kinases (JAK1, JAK2, JAK3, and Tyk2) with the Caliper microfluidic mobility-shift platform. The JAK family kinase enzymes and the FAM-labeled substrates were purchased from Carna Bioscience, Inc. (Japan) and Caliper Bioscience (US), respectively.
(§3) For JAK kinase activity measurement, the test compounds were diluted freshly with assay buffer (100 mM HEP ES, 10 mM MgCl2, 1.5 mM betaine, 0.015% Brij, and 25 mM β-glycerophosphate) and added to 384-well plates. FAM-labeled peptide substrate and ATP in assay buffer were added to the wells. After that, JAK enzymes prepared in assay buffer were also added to the wells and mixed to start the reaction. After a period of incubation at room temperature, the reaction was stopped by stop solution (500 mM EDTA). Finally, the plate was put on a Caliper LabChip 2000 system and a droplet of the reaction mixture was applied for electrophoretic separation in the chips of the machine. The enzyme conversion data then was read out for analysis.

JAK3 = target: T2, JAK3 (Homo sapiens, UniProt P52333); assay: Microfluidic mobility shift enzyme assay; type: biochemical
T2 construct: purchased Carna Bioscience, Inc. (Japan)
T2 sequence (P52333 1-1124): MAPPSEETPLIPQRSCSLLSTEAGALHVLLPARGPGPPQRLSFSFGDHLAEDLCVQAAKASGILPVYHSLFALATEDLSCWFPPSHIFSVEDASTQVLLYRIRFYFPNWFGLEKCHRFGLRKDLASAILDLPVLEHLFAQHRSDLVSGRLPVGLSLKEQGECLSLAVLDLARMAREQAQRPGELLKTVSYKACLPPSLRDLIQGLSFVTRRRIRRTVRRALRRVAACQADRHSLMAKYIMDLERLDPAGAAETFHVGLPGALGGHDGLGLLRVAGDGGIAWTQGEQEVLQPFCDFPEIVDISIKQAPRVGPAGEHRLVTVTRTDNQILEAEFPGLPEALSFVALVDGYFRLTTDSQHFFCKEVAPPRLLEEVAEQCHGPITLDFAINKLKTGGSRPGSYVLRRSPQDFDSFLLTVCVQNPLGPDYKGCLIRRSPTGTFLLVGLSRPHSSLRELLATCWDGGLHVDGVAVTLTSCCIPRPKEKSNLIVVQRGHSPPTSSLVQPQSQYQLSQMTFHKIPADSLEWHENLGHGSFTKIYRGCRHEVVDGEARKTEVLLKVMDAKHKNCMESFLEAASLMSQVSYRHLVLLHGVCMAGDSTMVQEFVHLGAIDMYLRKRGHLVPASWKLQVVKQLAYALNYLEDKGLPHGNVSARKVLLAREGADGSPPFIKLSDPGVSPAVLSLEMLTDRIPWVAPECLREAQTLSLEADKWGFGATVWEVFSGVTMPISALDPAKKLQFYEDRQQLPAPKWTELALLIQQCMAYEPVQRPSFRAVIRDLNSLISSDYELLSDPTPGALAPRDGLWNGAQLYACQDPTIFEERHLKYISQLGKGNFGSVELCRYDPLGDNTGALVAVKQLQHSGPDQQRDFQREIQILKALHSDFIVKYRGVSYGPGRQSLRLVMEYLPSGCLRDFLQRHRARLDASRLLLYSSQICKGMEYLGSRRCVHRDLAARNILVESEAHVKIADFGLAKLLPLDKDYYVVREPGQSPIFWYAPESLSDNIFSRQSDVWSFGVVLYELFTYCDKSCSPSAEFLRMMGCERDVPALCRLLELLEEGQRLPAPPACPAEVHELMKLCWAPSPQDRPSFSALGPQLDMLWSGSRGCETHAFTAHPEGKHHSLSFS
Experimental: as §2, §3

[1] = ChaGo-K-1 (Lung), 20 micromolar, 72 hrs
[2] = J82 (Urinary bladder), 20 micromolar, 72 hrs
[3] = MSTO-211-H (Lung), 20 micromolar, 72 hrs
[4] = NCI-H1623 (Lung), 20 micromolar, 72 hrs
[5] = ZR-75-30 (Breast), 20 micromolar, 72 hrs
[6] = NCI-H524 (Lung), 20 micromolar, 72 hrs
[7] = HT1197, HT-1197 (Urinary bladder), 20 micromolar, 72 hrs
[8] = NCI-H1694 (Lung), 20 micromolar, 72 hrs
[9] = HEC-1-A (Uterus), 20 micromolar, 72 hrs

T1 sequence (P29597 whole entry): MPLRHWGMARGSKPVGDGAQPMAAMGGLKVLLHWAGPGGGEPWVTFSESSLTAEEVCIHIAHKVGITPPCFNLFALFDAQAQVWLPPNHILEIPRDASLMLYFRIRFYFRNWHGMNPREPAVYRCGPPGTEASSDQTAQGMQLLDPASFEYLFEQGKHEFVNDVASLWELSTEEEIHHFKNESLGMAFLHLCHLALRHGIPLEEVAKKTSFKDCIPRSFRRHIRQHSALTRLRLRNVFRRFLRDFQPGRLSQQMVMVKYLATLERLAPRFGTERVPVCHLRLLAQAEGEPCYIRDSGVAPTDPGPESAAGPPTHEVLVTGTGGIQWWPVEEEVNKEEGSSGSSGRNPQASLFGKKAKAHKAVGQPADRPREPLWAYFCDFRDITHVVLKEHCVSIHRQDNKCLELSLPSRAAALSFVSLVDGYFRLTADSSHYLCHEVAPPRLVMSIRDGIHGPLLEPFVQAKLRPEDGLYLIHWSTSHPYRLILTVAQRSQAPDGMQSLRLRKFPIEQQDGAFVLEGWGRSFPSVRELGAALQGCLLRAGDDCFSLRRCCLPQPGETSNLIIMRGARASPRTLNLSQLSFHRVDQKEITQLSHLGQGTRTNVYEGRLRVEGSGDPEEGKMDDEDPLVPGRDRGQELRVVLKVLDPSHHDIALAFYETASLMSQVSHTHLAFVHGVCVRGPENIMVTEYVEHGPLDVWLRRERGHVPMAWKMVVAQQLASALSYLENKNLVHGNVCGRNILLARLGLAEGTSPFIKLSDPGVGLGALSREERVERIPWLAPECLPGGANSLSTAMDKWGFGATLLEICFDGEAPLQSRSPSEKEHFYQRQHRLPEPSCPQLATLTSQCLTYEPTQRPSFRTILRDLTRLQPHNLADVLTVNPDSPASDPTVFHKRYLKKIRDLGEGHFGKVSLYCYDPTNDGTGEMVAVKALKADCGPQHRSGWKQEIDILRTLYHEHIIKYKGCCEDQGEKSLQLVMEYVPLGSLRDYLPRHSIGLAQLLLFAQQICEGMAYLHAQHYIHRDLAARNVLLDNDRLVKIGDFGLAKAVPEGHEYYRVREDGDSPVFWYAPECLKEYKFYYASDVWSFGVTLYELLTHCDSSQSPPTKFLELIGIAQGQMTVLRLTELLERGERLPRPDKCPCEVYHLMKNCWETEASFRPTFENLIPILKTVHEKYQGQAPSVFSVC

Structure (SMILES) | inhibition at 20 µM (ChaGo-K-1; [1]) | inhibition at 20 µM (J82; [2]) | inhibition at 20 µM (MSTO-211-H; [3]) | inhibition at 20 µM (NCI-H1623; [4]) | inhibition at 20 µM (ZR-75-30; [5]) | inhibition at 20 µM (NCI-H524; [6]) | inhibition at 20 µM (HT-1197; [7]) | inhibition at 20 µM (NCI-H1694; [8]) | inhibition at 20 µM (HEC-1-A; [9]) | inhibition of Tyk2 kinase activity (in words) (Tyk2) | IC50 (Tyk2; Tyk2 enzyme, read-out: IC50) | inhibition of JAK3 kinase activity (in words) (JAK3) | IC50 (JAK3; JAK3 enzyme, read-out: IC50) | also measured
CC(C)=CCC/C(C)=C/Cc1c(O)c(CC=C(C)C)c2c(c1O)C(=O)C1=C[C@@H]3C[C@H]4C(C)(C)O[C@@](C/C=C(\C)C(=O)O)(C3=O)[C@@]14O2 [GB63] | 100% | 99% | 99% | 99% | 99% | 98% | 99% | 100% | 99% | – | – | – | – | –
CC(C)=CCC[C@@]1(C)C=Cc2c(O)c3c(c(C/C=C(\C)CO)c2O1)O[C@]12C(=C[C@@H]4C[C@H]1C(C)(C)O[C@@]2(C/C=C(/C)C(=O)O)C4=O)C3=O [GB40, 35-hydroxyepigambogic acid] | 98% | 99% | 98% | 99% | 99% | 99% | 99% | 99% | 99% | minor inhibitory effects | 12.9 ± 0.9 µM | significantly inhibited | 3.2 ± 0.2 µM | –
CC(C)=CCC[C@@]1(C)C=Cc2c(O)c3c(c(CCC(C)(C)O)c2O1)O[C@]12C(=C[C@@H]4C[C@H]1C(C)(C)O[C@@]2(C/C=C(/C)C(=O)O)C4=O)C3=O [GB39, 33-hydroxyepigambogic acid] | 100% | 100% | 100% | 100% | 100% | 100% | 100% | 100% | 100% | minor inhibitory effects | 13 ± 1.6 µM | significantly inhibited | 3.8 ± 0.3 µM | –
CC(C)=CCC/C(C)=C/Cc1c(O)c(CC=C(C)C)c2c(c1O)C(=O)C1=C[C@@H]3C[C@H]4C(C)(C)O[C@@](C/C=C(\C)C=O)(C3=O)[C@@]14O2 [GB49] | 99% | 98% | 99% | 99% | 100% | 100% | 96% | 100% | 99% | – | – | – | – | –
CC(C)=CCC/C(C)=C/Cc1c(O)c(CC=C(C)C)c2c(c1O)C(=O)C1=C[C@@H]3C[C@H]4C(C)(C)O[C@@](CC=C(C)C)(C3=O)[C@@]14O2 [GB32] | – | – | – | – | – | – | – | – | – | no effect | – | minor inhibition | – | inhibition at 20 µM (ChaGo-K-1; ChaGo-K-1, 72 h): 99%; inhibition at 20 µM (J82; J82, 72 h): 99%; inhibition at 20 µM (MSTO-211-H; MSTO-211H, 72 h): 99%; inhibition at 20 µM (NCI-H1623; NCI-H1623, 72 h): 99%; inhibition at 20 µM (ZR-75-30; ZR-75-30, 72 h): 99%; inhibition at 20 µM (NCI-H524; NCI-H524, 72 h): 99%; inhibition at 20 µM (HT-1197; HT1197, 72 h): 99%; inhibition at 20 µM (NCI-H1694; NCI-H1694, 72 h): 100%; inhibition at 20 µM (HEC-1-A; HEC-1-A, 72 h): 99%; IC50 (Tyk2): > 40 µM; IC50 (JAK3; IC50, JAK3 enzyme): 17.5 ± 1.5 µM
